From patent publication US20170334919A1, “2-((4-AMINO-3-(3-FLUORO-5-HYDROXYPHENYL)-1H-PYRAZOLO[3,4-D]PYRIMIDIN-1 -YL)METHYL)-3-(2-(TRIFLUORO-MET HYL)BENZYL)QUINAZOLIN-4(3H)-ONE DERIVATIVES AND THEIR USE AS PHOSPHOINOSITIDE 3-KINASE INHIBITORS” (RESPIVERT LTD., priority 2013, published 2017)
Where two headings read alike, the source gives them in different places.

Legend:
THP1 cells = test: Chemotaxis to MCP1; format: cell-based; conditions: Homo sapiens, THP-1; read-out: REC50, THP1 cell chemotaxis to MCP1
Description: As a means of assessing PI3K γ dependent cell function, THP1 cell chemotaxis to MCP-1 was evaluated using a 48 well-chemotaxis chamber. THP1 cells from a human leukemic monocyte lymphoma cell line, (purchased from ATCC Manassas, Va.) were maintained in RPMI 1640 (Invitrogen Ltd., Paisley, UK) with 10% FCS at 37° C. Cells were re-suspended in 0.5% BSA/RPM11640 (2×10^6 cells/mL) and incubated for 10 min at 37° C., 5% CO2. Cell suspension aliquots (500 μL) were then treated either with compounds in neat DMSO or with DMSO as vehicle (2.5 μL) for 1hr (37° C., 5% CO2).
MCP1 (50 nM) was prepared in 0.5% BSA/RPM11640. MCP1 solution (50 μL) was added to each well in the bottom plate of a 48-well chemotaxis chamber (AP48, NeuroProbe Inc., Gaithersburg, Md.). A polycarbonate membrane (8 μm) was mounted on the bottom chamber, and then the top plate was mounted on the bottom chamber and filter membrane. […]
A solution of MTT (50 μL) in 10% FCS phenol red-free RPM11640 was added to each well, and the plate was incubated for 2 hr (37° C., 5% CO2). Neat DMSO (100 μL) was added to each well to extract formazan formed from MTT and the plates were shaken lightly for 1 hr prior to measuring the absorbance at 595 nm (Varioskan® Flash, Thermo-Fisher Scientific). […] Relative EC50 values were determined from concentration-inhibition curves using XL-Fit (idbs, Guildford, UK).

[1] = test system: PI3K γ (Akt phosphorylation in d-U937 cells); test: PI3K γ cell based assay: MCP-1-induced Akt phosphorylation in d-U937 cells; conditions: Homo sapiens, dU937; inhibition of induced Akt phosphorylation; read-out: Cellular Activity REC50 values in d-U937 cells, MCP-1 stimulus
Description: As a means of assessing the activation of PI3K γ in response to stimuli, the phosphorylation status of the protein, Akt, a downstream product of PI3K γ signalling, was determined following stimulation with MCP-1.
U937 cells were differentiated to macrophage-type cells by incubation with PMA (100 ng/mL) for 48 to 72 hr. Cells were then pre-incubated with either the test compound or vehicle for 2 hr and were then stimulated briefly with MCP-1 (10 nM, 1 min) and the reaction stopped by replacing the media with 4% formaldehyde solution. […] After washing with buffer (PBS containing 0.1% Triton X-100), cells were incubated with an HRP-conjugated secondary antibody (Dako) and the resultant signal was determined colorimetrically (OD: 450 nm with a reference wavelength of 655 nm) using TMB substrate (substrate reagent pack supplied by R&D Systems, Inc.).
This reaction was stopped by addition of 1N H2SO4 solution (100 μL). […] After washing with buffer (PBS containing 0.1% Triton X-100) 1% SDS (100 μL) was added to each well and the plates were shaken lightly for 1 hr prior to measuring the absorbance at 595 nm (Varioskan® Flash, Thermo-Fisher Scientific). The measured OD450-655 readings were corrected for cell number by dividing the OD450-655 by the OD595 readings. The ratio of pAkt signal to total Akt signal was used to quantitate the extent of PI3K γ activation. […]

PBMCs = test: Cytostim-induced cytokine production in PBMCs; format: cell-based; conditions: Homo sapiens, PBMC
Description: As a means of assessing PI3Kδ-dependent cell function, cytostim-induced IL-4, IL-5, IL-13 and IFNγ production in PBMCs were evaluated by Luminex multiplex assay. All healthy volunteers were recruited by Quintiles Limited (London, UK), and blood samples were delivered to Respivert Ltd. This study was approved by the local Ethics Committee, and all subjects gave written informed consent.
PBMC suspensions (200 μL; 2×10^6 cells/mL) were added to a 96-well plate. Cells were treated with either test compounds in neat DMSO or DMSO as vehicle (2 μL) and incubated at RT for 1 hr. Cytostim (Miltentyi Biotec, Surrey, UK) was introduced at a ratio of 1:50 and the cells were incubated for 20 hr (37° C.; 5% CO2). Plates were spun at 500×g for 5 min and the supernatant collected. A high sensitivity cytokine magnetic bead kit (#HSCYTMAG-60SK, Millipore, Watford, UK) was used to measure the four analytes (IL-4, IL-5, IL-13 and IFNγ) by Luminex as follows: The magnetic antibody beads were multiplexed and incubated in a 96-well plate with standard, media only or sample (50 μL) overnight with shaking at 4° C. After washing twice with Millipore wash buffer provided in the kit using a magnetic plate washer, the beads were incubated for 1 hr with detection antibody (50 μL) with shaking at RT. A streptavidin-phycoerythrin solution provided in the kit was added for 30 min with shaking at RT. After washing, the beads were re-suspended in sheath fluid (150 μL) and analysed immediately. The Luminex system was set up to count 50 beads and the amount of each analyte in the supernatant was calculated against a standard curve. The IC50 values were determined from concentration-inhibition curves using XL-Fit (IDBS, Guildford, UK)

**Q.** For COCCOCCOCC#Cc1cccc2nc(Cn3nc(-c4cc(O)cc(F)c4)c4c(N)ncnc43)n(Cc3ccccc3C(F)(F)F)c(=O)c12 [Compound (I), 2-((4-Amino-3-(3-fluoro-5-hydroxyphenyl)-1H-pyrazolo[3,4-d]pyrimidin-1-yl)methyl)-5-(3-(2-(2-methoxyethoxy)ethoxy)prop-1-yn-1-yl)-3-(2-(trifluoromethyl)benzyl)quinazolin-4(3H)-one], which EC50 (THP1 cells) is on record?
**A.** The EC50 was 0.0339 µM.

**Q.** And the EC50 [1]?
**A.** The EC50 was 0.0165 µM.

**Q.** And the IC50 (PBMCs; read-out: IC50, Cytostim-induced IFNγ in PBMCs)?
**A.** The IC50 was 0.0138 µM.

**Q.** And the IC50 (PBMCs; read-out: IC50, Cytostim-induced IL-4 in PBMCs)?
**A.** Its IC50 is under 0.0014 µM.

**Q.** What about the IC50 (PBMCs; read-out: IC50, Cytostim-induced IL-5 in PBMCs) of the same molecule?
**A.** The IC50 was under 0.0014 µM.

**Q.** What about the IC50 (PBMCs; read-out: IC50, Cytostim-induced IL-13 in PBMCs) of the same molecule?
**A.** The IC50 was under 0.0014 µM.
